Laboratory results reported in ChEMBL document CHEMBL1201862, “PubChem BioAssay data set” (2004).
Calls of active or inactive are those of the source.

Legend:
[1] = target: T1, Neuropeptide Y receptor type 1 (Homo sapiens, UniProt P25929); type: functional;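 further: HEK293 cells with a CNG channel challenged with NPY then isoproterenol; potency as antagonist that reverses NPY suppression of cAMP signal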
T1 sequence (P25929 whole entry): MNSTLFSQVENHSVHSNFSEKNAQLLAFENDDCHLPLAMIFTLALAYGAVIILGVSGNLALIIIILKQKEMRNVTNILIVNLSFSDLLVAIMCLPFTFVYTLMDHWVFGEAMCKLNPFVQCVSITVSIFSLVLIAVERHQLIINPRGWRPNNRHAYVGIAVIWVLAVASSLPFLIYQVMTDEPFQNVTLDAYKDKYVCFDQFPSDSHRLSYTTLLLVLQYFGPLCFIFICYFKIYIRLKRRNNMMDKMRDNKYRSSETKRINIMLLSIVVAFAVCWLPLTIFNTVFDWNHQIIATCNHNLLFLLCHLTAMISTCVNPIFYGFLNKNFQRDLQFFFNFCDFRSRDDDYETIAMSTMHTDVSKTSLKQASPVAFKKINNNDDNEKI

[2] = target: T2, Neuropeptide Y receptor type 2 (Homo sapiens, UniProt P49146); type: functional, cell-based;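 further: HEK293 cells expressing the receptor and a CNG channel; stimulus was NPY near EC95 followed by isoproterenol to raise cAMP; antagonist potency measured as restoring cAMP signal that NPY suppresses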
T2 sequence (P49146 whole entry): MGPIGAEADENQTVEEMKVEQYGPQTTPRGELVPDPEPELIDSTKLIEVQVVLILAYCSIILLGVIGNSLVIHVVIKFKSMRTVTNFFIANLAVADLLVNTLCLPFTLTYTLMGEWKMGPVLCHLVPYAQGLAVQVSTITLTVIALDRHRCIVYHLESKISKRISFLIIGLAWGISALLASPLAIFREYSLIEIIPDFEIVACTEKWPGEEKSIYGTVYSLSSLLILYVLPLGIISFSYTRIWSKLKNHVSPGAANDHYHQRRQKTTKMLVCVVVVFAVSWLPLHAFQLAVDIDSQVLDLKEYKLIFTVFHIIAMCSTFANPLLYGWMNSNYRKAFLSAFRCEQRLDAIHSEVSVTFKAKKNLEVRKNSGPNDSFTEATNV

[3] = target: T3, Alkaline phosphatase, tissue-nonspecific isozyme (Homo sapiens, UniProt P05186)
T3 sequence (P05186 whole entry): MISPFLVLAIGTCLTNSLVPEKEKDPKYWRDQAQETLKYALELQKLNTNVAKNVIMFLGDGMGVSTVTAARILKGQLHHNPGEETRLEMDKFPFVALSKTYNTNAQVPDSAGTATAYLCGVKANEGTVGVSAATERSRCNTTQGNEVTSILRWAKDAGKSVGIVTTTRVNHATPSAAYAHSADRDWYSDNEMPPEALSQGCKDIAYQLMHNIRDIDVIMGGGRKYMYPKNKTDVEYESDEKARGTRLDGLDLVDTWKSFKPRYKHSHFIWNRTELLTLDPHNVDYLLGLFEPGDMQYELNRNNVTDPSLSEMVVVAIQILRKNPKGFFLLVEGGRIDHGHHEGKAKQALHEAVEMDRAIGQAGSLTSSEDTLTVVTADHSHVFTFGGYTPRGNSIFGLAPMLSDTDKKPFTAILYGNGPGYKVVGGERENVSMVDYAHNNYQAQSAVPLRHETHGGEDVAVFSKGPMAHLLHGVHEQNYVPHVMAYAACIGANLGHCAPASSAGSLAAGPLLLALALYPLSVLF

[4] = NIH-3T3 fibroblast cytotoxicity, dose response, cytotoxicity control, cell-based, fluorescence, Alamar Blue, secondary assay (AID 2327); type: functional;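 further: NIH-3T3 mouse fibroblasts cultured with fluconazole at 8 µg/mL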
Streptokinase A = target: T4, Streptokinase A (Streptococcus pyogenes serotype M1, UniProt P10520); test: viability-normalized secreted streptokinase activity reduction – plasminogen activation absorbance, OD405, dose response (AID 1914); type: functional, Streptococcus pyogenes M1 GAS;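 further: secreted streptokinase activity via plasminogen activation per viability signal from cell pellet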
T4 sequence (P10520 whole entry): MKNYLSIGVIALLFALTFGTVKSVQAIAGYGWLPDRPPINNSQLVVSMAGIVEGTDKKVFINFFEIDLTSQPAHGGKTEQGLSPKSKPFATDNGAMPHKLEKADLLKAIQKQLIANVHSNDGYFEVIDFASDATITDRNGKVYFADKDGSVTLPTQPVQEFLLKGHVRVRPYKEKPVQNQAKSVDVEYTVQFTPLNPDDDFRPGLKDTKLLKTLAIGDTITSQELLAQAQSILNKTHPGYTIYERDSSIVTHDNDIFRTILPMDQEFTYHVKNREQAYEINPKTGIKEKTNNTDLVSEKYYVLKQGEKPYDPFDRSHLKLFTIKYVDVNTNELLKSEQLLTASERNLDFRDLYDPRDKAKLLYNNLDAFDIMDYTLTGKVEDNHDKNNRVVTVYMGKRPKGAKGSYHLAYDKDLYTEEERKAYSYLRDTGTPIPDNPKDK

Genome polyprotein = Genome polyprotein (dengue virus type 2, UniProt P29990); test: flavivirus cap methylation enzyme inhibition – biochemical, confirmation dose response, primary screen (AID 588689); type: functional
Genome polyprotein, sequence (P29990 2492-3391 limits assumed): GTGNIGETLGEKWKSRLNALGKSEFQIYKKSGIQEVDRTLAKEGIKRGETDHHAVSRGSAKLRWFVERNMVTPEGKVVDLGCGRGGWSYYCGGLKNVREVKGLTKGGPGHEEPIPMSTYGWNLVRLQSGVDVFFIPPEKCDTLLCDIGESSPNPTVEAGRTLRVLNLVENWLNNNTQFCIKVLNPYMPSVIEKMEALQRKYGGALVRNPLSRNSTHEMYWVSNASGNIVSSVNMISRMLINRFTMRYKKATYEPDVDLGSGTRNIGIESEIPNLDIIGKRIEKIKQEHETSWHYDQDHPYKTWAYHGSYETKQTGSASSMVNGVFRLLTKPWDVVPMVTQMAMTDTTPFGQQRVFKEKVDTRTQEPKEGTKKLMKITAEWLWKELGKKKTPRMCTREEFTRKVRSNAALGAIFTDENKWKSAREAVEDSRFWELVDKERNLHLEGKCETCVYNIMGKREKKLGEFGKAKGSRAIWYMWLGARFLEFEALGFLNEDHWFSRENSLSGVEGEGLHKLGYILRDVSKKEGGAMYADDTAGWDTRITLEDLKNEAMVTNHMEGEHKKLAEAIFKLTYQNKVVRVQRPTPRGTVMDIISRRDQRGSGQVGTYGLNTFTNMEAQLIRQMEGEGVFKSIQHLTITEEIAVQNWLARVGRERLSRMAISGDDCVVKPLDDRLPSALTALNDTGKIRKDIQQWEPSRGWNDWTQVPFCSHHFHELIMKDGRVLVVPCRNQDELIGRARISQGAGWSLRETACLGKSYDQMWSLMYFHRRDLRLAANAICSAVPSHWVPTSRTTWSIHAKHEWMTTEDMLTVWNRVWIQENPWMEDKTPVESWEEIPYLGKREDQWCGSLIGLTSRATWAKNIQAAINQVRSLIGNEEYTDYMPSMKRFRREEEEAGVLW

[5] = system: Streptococcus sp. 'group A'; test: Streptococcus pyogenes SK(-)GAS viability under kanamycin – luminescence, BacTiterGlo, confirmation, counter-screen for streptokinase expression inhibitor project, dose response (AID 1900); type: functional, organism-based
Aminopeptidase N = target: T5, Aminopeptidase N (Plasmodium falciparum FcB1/Columbia, UniProt O96935); test: malaria alanyl aminopeptidase activity blockers – biochemical, fluorogenic H-Leu-NHMec substrate, 1536-well (AID 1445); set-up: species or system Plasmodium falciparum 3D7, 3D7
T5 sequence (O96935 whole entry): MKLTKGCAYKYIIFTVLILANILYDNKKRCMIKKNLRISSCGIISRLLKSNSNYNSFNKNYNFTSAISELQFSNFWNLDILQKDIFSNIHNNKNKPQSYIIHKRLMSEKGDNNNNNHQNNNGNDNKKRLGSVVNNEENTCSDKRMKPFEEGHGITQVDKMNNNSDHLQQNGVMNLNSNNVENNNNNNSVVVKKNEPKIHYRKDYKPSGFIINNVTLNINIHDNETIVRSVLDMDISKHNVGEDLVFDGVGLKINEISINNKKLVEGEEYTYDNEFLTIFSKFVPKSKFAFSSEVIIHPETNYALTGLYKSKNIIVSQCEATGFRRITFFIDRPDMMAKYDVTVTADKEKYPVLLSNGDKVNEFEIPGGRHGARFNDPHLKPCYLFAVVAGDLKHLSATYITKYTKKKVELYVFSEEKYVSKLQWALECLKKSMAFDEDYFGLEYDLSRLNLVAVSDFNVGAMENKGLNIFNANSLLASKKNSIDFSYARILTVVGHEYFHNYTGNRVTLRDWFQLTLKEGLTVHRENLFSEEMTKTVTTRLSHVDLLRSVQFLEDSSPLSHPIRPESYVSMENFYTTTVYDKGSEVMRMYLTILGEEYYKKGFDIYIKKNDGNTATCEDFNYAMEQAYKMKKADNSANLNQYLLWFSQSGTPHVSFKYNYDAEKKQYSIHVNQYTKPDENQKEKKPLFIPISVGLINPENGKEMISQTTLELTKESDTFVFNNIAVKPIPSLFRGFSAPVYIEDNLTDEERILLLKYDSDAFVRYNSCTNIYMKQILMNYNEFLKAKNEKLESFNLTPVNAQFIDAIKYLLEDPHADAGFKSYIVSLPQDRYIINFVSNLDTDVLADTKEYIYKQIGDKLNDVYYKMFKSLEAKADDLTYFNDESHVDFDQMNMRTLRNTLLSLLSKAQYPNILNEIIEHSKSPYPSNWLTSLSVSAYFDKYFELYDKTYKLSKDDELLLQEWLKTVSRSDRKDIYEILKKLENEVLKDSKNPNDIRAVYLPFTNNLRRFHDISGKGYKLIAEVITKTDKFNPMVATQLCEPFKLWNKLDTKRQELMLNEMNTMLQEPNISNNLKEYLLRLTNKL

Streptococcus = test: GAS UMAA2166 growth inhibition – luminescence, BacTiterGlo, counter-screen for streptokinase expression inhibitor project, dose response (AID 1915); type: functional, organism-based;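 further: potency for reduction of bacterial viability or growth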
[6] = fluconazole-exposed Candida albicans growth modulators – fluorescence, retest, confirmation (AID 2467); type: functional, cell-based
[7] = CCR5-tropic HIV-1 fusion blockers – cell-based, CCR5-tropic Env, dose response (AID 2279); type: functional
Bcl-2-like protein 10 = target: T6, Bcl-2-like protein 10 (Homo sapiens, UniProt Q9HD36); test: Concentration-response of Bcl-B inhibitors by biochemical FP with TR3 (AID 1243); type: functional
T6 sequence (Q9HD36 whole entry): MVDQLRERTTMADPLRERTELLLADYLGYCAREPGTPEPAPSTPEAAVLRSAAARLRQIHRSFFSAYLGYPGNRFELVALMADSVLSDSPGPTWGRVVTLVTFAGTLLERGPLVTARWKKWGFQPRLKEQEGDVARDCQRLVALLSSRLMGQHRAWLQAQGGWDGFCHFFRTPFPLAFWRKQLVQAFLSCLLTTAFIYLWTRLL

[8] = target: DNA dC->dU-editing enzyme APOBEC-3G (Homo sapiens, UniProt Q9HC16); type: functional;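 further: Dose-response counterscreen measuring inhibition of APOBEC3G DNA deaminase activity, run while confirming APOBEC3A inhibitors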
DNA dC->dU-editing enzyme APOBEC-3G, sequence (Q9HC16 whole entry): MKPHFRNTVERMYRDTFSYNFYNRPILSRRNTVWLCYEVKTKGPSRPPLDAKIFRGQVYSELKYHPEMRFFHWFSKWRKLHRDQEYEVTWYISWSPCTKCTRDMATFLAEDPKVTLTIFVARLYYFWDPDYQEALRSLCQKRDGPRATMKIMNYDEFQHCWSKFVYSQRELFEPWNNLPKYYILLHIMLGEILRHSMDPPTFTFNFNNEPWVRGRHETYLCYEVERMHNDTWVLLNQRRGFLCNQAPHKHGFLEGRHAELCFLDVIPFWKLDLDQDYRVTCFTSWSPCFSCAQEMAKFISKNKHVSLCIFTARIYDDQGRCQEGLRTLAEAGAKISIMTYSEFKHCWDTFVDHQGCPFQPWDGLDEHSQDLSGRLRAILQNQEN

[9] = target: DNA dC->dU-editing enzyme APOBEC-3A (Homo sapiens, UniProt P31941); test: Dose Response confirmation of small molecule APOBEC3A DNA Deaminase Inhibitors via a fluorescence-based single-stranded DNA deaminase assay. [Related pubchem assays (depositor defined):AID493011, AID493024]; type: functional
DNA dC->dU-editing enzyme APOBEC-3A, sequence (P31941 whole entry): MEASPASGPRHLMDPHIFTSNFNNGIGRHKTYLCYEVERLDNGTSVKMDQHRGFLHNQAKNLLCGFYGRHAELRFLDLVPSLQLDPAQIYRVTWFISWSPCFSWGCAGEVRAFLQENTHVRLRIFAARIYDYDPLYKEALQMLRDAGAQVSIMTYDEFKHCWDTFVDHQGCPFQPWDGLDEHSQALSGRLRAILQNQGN

[10] = mitochondrial function rescue without frataxin homolog – Friedreich's ataxia, plus single-dose screen, dose response (AID 1465); type: functional;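 further: yeast depleted of Yfh1p frataxin homolog grown on glycerol needing respiration; WST-1 tetrazolium dye reduction as measure of cellular dehydrogenase metabolic activity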
Vero = test: cells; type: functional; settings: Chlorocebus sabaeus
cells = type: functional
[11] = THP-1 cell cytotoxicity, dose response, cytotoxicity control for non-replicating M. tuberculosis project (AID 489025); type: functional
[12] = target: T7, Zinc finger protein mex-5 (Caenorhabditis elegans, UniProt Q9XUB2); test: potency of MEX-5 RNA-binding blockers – biochemical, C. elegans, fluorescence polarization, dose response (AID 1960)
T7 sequence (Q9XUB2 whole entry): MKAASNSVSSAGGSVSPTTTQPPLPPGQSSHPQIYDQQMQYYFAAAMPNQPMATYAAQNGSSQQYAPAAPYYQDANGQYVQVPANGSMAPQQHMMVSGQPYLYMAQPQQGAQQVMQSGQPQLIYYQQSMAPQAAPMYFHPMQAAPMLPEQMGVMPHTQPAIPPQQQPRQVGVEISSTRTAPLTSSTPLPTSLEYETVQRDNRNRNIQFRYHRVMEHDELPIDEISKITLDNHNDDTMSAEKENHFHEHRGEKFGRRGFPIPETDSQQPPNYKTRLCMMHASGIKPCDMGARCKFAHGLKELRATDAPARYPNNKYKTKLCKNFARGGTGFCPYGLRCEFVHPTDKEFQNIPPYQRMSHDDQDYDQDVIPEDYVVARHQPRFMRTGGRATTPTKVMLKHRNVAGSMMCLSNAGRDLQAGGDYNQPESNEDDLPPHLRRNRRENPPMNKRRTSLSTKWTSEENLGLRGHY

[13] = target: T8, Heat shock factor protein 1 (Mus musculus, UniProt P38532); test: enhancement of HSF1-driven luciferase signal – cell-based, NIH3T3, luminescence, dose retest, confirmation (AID 435004); type: functional;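 further: stress induced by proteasome inhibitor MG132 added 30 min after compound; luciferase reporter driven by HSF1 response element in NIH3T3 cells; actives raise luminescence as potentiators of the MG132 stress response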
T8 sequence (P38532 whole entry): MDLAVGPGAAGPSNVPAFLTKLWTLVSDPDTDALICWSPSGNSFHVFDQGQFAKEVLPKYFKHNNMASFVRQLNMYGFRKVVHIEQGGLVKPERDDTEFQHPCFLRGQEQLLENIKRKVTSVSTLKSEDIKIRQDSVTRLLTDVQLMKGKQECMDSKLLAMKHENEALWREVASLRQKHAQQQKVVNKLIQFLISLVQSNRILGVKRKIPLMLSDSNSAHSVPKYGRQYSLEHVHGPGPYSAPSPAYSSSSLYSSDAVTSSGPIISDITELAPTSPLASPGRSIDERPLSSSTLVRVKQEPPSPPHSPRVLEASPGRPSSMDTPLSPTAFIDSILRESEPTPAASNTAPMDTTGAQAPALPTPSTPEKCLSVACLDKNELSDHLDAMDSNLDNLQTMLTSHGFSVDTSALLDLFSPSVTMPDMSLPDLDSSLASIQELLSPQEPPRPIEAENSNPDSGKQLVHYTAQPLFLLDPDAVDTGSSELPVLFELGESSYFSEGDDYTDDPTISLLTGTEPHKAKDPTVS

[14] = target: T9, RNA-binding protein pos-1 (Caenorhabditis elegans, UniProt G5EF15); test: disruptors of C. elegans POS-1 RNA interaction – biochemical, fluorescence polarization, dose response (AID 1964);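 further: purified POS-1 fused to maltose binding protein made in E. coli; potency of compounds blocking POS-1 binding to fluorescent RNA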
T9 sequence (G5EF15 whole entry): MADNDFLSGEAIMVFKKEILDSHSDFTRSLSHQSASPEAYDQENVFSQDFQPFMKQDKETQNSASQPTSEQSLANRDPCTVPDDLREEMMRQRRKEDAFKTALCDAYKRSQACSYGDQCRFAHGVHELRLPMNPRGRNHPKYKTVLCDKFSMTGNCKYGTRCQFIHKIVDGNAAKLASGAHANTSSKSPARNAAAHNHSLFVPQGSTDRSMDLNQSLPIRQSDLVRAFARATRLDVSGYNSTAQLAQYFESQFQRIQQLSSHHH

NS3 = NS3 (Hepatitis C virus, UniProt A3EZJ3); test: PubChem AID 2173; set-up: species or system Hepacivirus hominis
NS3, sequence (A3EZJ3 whole entry): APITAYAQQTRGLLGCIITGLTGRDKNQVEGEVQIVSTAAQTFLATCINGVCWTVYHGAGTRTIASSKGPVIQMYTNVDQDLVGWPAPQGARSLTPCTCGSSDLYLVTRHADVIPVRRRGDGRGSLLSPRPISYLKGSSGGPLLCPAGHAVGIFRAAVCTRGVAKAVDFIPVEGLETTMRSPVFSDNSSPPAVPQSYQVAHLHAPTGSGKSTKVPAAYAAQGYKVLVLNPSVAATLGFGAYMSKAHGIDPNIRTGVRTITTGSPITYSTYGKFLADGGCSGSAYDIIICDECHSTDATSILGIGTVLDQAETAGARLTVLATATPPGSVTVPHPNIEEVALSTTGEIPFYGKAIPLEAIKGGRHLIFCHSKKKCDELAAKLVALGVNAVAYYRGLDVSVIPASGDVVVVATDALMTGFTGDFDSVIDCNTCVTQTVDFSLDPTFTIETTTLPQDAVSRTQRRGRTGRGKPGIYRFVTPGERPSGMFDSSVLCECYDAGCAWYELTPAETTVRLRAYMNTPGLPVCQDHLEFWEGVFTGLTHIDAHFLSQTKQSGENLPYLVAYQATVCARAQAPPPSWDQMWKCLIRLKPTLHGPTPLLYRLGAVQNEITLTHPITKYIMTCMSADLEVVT

Cc1ccc(N=C(S)N=C(N)Nc2nc(C)c3cc(C)ccc3n2)c(C)c1
IC50 [1]: > 35 µM (not active) | IC50 [2]: 22.9 µM (not active)

O=C1CC(N2CCN(c3cccc(C(F)(F)F)c3)CC2)C(=O)N1c1ccc(F)cc1 (configuration not stated)
EC50 [3]: > 100 µM (not active)

CC1(C)CC(=O)C2=C(C1)c1c(ccc3ccccc13)NC2c1cc([N+](=O)[O-])cc([N+](=O)[O-])c1O (configuration not stated)
EC50 [4]: 106 µM (active) | EC50 (Streptokinase A): > 150 µM (not active) | IC50 (Genome polyprotein): 25.3 µM (active) | EC50 [5]: 4.43 µM (active) | IC50 (Aminopeptidase N): 29.4 µM (active) | EC50 (Streptococcus): > 150 µM (not active) | EC50 [6]: 622 nM (active) | IC50 [7]: 29.9 µM (active)

CC(=O)c1cc(C#N)c(SCC(=O)c2ccc(O)c(O)c2)nc1C
EC50 (Bcl-2-like protein 10): 11 µM (active)

C[n+]1cc(C(=O)N2CCCCC2)ccc1/C=C/c1c[nH]c2ccccc12
IC50 [8]: 2.7 µM (active) | IC50 [9]: 2.44 µM (active) | EC50 [10]: > 100 µM (active)

COc1ccc(N2C(=O)NC(=O)/C(=C/c3ccc([N+](=O)[O-])s3)C2=O)cc1
CC50 (Vero): > 25 µM (active) | IC50 (cells): 26.7 µM (active) | CC50 [11]: 38.5 µM (active) | EC50 [12]: 24.3 µM (active) | EC50 [13]: 8.55 µM (active) | EC50 [14]: > 300 µM (not active) | IC50 (NS3): 9.42 µM (active)
